Measurements published in publication PMC9975091 (Heliyon, 2023).
Like-named read-outs stand apart in the source and are kept apart here.

Legend:
MCF-7 = test: MTT cytotoxicity assay, MCF-7; assay type: cell-based; conditions: Homo sapiens
WRL-68 = test: cells; assay type: cell-based; conditions: for IC50: Homo sapiens; for toxicity against normal cell line: WRL-68, result in words
HepG2 = test: MTT cytotoxicity assay, HepG2; assay type: cell-based, human
HCT-116 = test: MTT cytotoxicity assay, HCT-116; assay type: cell-based; conditions: Homo sapiens
PC3 cells = conditions: read-out: IC50 proliferation rate of PC3 cells; cited from earlier work
[1] = MCF7, 48 h, read-out: IC50 against MCF-7 μM 48 h
[2] = MCF7, 72 h, read-out: IC50 against MCF-7 μM 72 h
[3] = WRL68, 48 h, read-out: IC50 against WRL-68 μM 48 h
[4] = Homo sapiens, HepG2, 48 h, read-out: IC50 against HepG2 μM 48 h, MTT, 48 h
[5] = Homo sapiens, HepG2, 72 h, read-out: IC50 against HepG2 μM 72 h, MTT, 72 h
[6] = HCT-116, 48 h, read-out: IC50 against HCT-116 μM 48 h
[7] = HCT-116, 72 h, read-out: IC50 against HCT-116 μM 72 h
[8] = WRL68, 72 h, read-out: IC50 against WRL-68 μM 72 h

IC50 (WRL-68; [3])	IC50 (WRL-68; [8])	Compound	IC50 (MCF-7; [1])	IC50 (MCF-7; [2])	IC50 (HepG2; [4])	IC50 (HepG2; [5])	IC50 (HCT-116; [6])	IC50 (HCT-116; [7])	toxicity against normal cell line (WRL-68)	IC50 (PC3 cells)	IC50 (HepG2; read-out: IC50 against HepG2 μM 72 h, MTT, 72 h)
112 µM	–	COc1ccc(-c2nc(OCc3cn(CC(=O)Nc4cccc(OC)c4)nn3)c3ccccc3n2)cc1 [Compound 8e, N-(3-methoxyphenyl)-2-(4-(((2-(4-methoxyphenyl)quinazolin-4-yl)oxy)methyl)-1H-1,2,3-triazol-1-yl)acetamide]	35.2 µM	23 µM	46 µM	10.2 µM	160 µM	90.6 µM	–	–	–
117 µM	84.4 µM	COc1cc(-c2nc(OCc3cn(CC(=O)Nc4ccccc4)nn3)c3ccccc3n2)cc(OC)c1OC [Compound 8k, N-phenyl-2-(4-(((2-(3,4,5-trimethoxyphenyl)quinazolin-4-yl)oxy)methyl)-1H-1,2,3-triazol-1-yl)acetamide]	24.2 µM	11.3 µM	72.4 µM	16.2 µM	69 µM	41.1 µM	–	–	–
101 µM	71.3 µM	COc1cc(-c2nc(OCc3cn(CC(=O)Nc4ccc(C)cc4)nn3)c3ccccc3n2)cc(OC)c1OC [Compound 8l, N-(p-tolyl)-2-(4-(((2-(3,4,5-trimethoxyphenyl)quinazolin-4-yl)oxy)methyl)-1H-1,2,3-triazol-1-yl)acetamide]	28.8 µM	26.5 µM	41.4 µM	–	64.3 µM	29.4 µM	–	–	–
113 µM	83.5 µM	COc1ccc(-c2nc(OCc3cn(CC(=O)Nc4ccc(C)cc4)nn3)c3ccccc3n2)cc1 [Compound 8d, 2-(4-(((2-(4-methoxyphenyl)quinazolin-4-yl)oxy)methyl)-1H-1,2,3-triazol-1-yl)-N-(p-tolyl)acetamide]	39.9 µM	20 µM	59.2 µM	15 µM	30.1 µM	8.97 µM	–	–	–
108 µM	89.8 µM	COc1ccc(-c2nc(OCc3cn(CC(=O)Nc4ccc(Cl)cc4)nn3)c3ccccc3n2)cc1 [Compound 8b, N-(4-chlorophenyl)-2-(4-(((2-(4-methoxyphenyl)quinazolin-4-yl)oxy)methyl)-1H-1,2,3-triazol-1-yl)acetamide]	25.9 µM	20.9 µM	78.9 µM	19.8 µM	77.1 µM	68.6 µM	–	–	–
100 µM	90.3 µM	COc1ccc(-c2nc(OCc3cn(CC(=O)Nc4ccc([N+](=O)[O-])cc4C)nn3)c3ccccc3n2)cc1 [Compound 8f, 2-(4-(((2-(4-methoxyphenyl)quinazolin-4-yl)oxy)methyl)-1H-1,2,3-triazol-1-yl)-N-(2-methyl-4-nitrophenyl)acetamide]	21.3 µM	18 µM	26.1 µM	9.15 µM	36.2 µM	23.9 µM	limited toxicity	–	–
2.19 µM	1.73 µM	COc1cccc2c1C(=O)c1c(O)c3c(c(O)c1C2=O)C[C@@](O)(C(=O)CO)C[C@@H]3O[C@H]1C[C@H](N)[C@H](O)[C@H](C)O1 [Doxorubicin, reference compound]	–	–	1.96 µM	1.31 µM	–	1.21 µM	–	–	–

The next lines start with the compound.

Compound	IC50 (WRL-68; [3])	IC50 (WRL-68; [8])	IC50 (MCF-7; [1])	IC50 (MCF-7; [2])	IC50 (HepG2; [4])	IC50 (HepG2; [5])	IC50 (HCT-116; [6])	IC50 (HCT-116; [7])	toxicity against normal cell line (WRL-68)	IC50 (PC3 cells)	IC50 (HepG2; read-out: IC50 against HepG2 μM 72 h, MTT, 72 h)
COc1ccc(-c2nc(OCc3cn(CC(=O)Nc4ccccc4)nn3)c3ccccc3n2)cc1 [Compound 8a, 2-(4-(((2-(4-methoxyphenyl)quinazolin-4-yl)oxy)methyl)-1H-1,2,3-triazol-1-yl)-N-phenylacetamide]	112 µM	94.1 µM	38.1 µM	13 µM	17.5 µM	7.94 µM	10.7 µM	5.33 µM	limited toxicity	–	–
COc1ccc(-c2nc(OCc3cn(CC(=O)Nc4ccc(Br)cc4)nn3)c3ccccc3n2)cc1 [Compound 8c, N-(4-bromophenyl)-2-(4-(((2-(4-methoxyphenyl)quinazolin-4-yl)oxy)methyl)-1H-1,2,3-triazol-1-yl)acetamide]	106 µM	74.4 µM	111 µM	62.2 µM	30.4 µM	13 µM	47.8 µM	12.2 µM	–	–	–
CNC(=O)c1cc(Oc2ccc(NC(=O)Nc3ccc(Cl)c(C(F)(F)F)c3)cc2)ccn1 [sorafenib]	–	–	–	–	–	–	–	–	–	17.3 µM	–
Cc1ccc(NC(=O)Cn2cc(COc3nc(-c4ccc(Cl)cc4)nc4ccccc34)nn2)cc1 [Compound 8i, 2-(4-(((2-(4-chlorophenyl)quinazolin-4-yl)oxy)methyl)-1H-1,2,3-triazol-1-yl)-N-(p-tolyl)acetamide]	117 µM	86.4 µM	221 µM	97 µM	55.1 µM	10.9 µM	48.1 µM	24.2 µM	–	–	–
O=C(Cn1cc(COc2nc(-c3ccc(Cl)cc3)nc3ccccc23)nn1)Nc1cccc(Br)c1 [Compound 8j, N-(3-bromophenyl)-2-(4-(((2-(4-chlorophenyl)quinazolin-4-yl)oxy)methyl)-1H-1,2,3-triazol-1-yl)acetamide]	110 µM	78.6 µM	164 µM	55.8 µM	55.8 µM	8.55 µM	176 µM	54.2 µM	–	–	12.7 µM
O=C(Cn1cc(COc2nc(-c3ccc(Cl)cc3)nc3ccccc23)nn1)Nc1ccc(Br)cc1 [Compound 8h, N-(4-bromophenyl)-2-(4-(((2-(4-chlorophenyl)quinazolin-4-yl)oxy)methyl)-1H-1,2,3-triazol-1-yl)acetamide]	115 µM	89.5 µM	34.1 µM	20.6 µM	90.5 µM	8.55 µM	42.3 µM	41.8 µM	–	–	–
O=C(Cn1cc(COc2nc(-c3ccc(Cl)cc3)nc3ccccc23)nn1)Nc1ccccc1 [Compound 8g, 2-(4-(((2-(4-chlorophenyl)quinazolin-4-yl)oxy)methyl)-1H-1,2,3-triazol-1-yl)-N-phenylacetamide]	103 µM	85.1 µM	67.2 µM	20.9 µM	38.8 µM	13.2 µM	49.2 µM	24.5 µM	–	–	–
